Earlier results, collected in article PMC3600422 (Journal of molecular biology, 2012).

What was measured:
[1] = tested on: small cell lung carcinoma; details: mouse models
cancer cells = details: Mcl-1 or Bfl-1 overexpressed

SMILES: CN(C)CC[C@H](CSc1ccccc1)Nc1ccc(S(=O)(=O)NC(=O)c2ccc(N3CCN(Cc4ccccc4-c4ccc(Cl)cc4)CC3)cc2)cc1[N+](=O)[O-] [ABT-737]
- Binding to Mcl-1 (Mcl-1): do not bind to Mcl-1
- Binding to Bfl-1 (Bfl-1): do not bind to Mcl-1 or Bfl-1
- Tumor regression [1]: can regress or eliminate small cell lung carcinoma
- Inducing death in cancer cells (cancer cells): ineffective in inducing death in cancer cells when these anti-apoptotic proteins are overexpressed
